A short description of series [1]: Mouse pharmacokinetics after oral gavage, plasma drug concentration by LC-MS/MS (BALB/c). It is filed as in vivo. The settings on record: 10 mg/kg, male mice; for Cmax / AUC(0-t): mouse, plasma; for AUC(0-t): read-out: AUC0-24. Here is the method: (§1) Compounds were formulated in 5% DMSO/5% Tween20 in H2O, sonicated, vortexed, and put on stir plate overnight at a dose volume of 10 mL/kg. Balb/C (Jackson laboratories) or C57bl/6 (Taconic Biosciences) mice (8-9 weeks old) were acclimated to the colony for 3 days prior to dosing. Water and food were provided ab libitum. Compounds were administered by oral gavage. Groups of six animals received 3 to 4 bleeds per day with one terminal bleed. The time points were 30 min, 1 h, 2 h, 4 h, 6 h, 8 h, 24 h. Plasma was collected via centrifugation and analyzed for drug concentrations.
(§2) Preparation of Study Samples and Standards for Analysis by LC-MS/MS
(§3) 50 μl of plasma was aliquoted into a 96 well deep-well polypropylene plate (2 mL) to which 5 μL of DMSO was added. For standards, 5 μl of test compound in DMSO at […] the standard concentration was added to 50 μl of blank matrix in a 96 well deep-well polypropylene plate. For example, for a 300 nM standard, the 10× DMSO concentration was 3 μM. Study samples that require dilution are diluted with the appropriate blank matrix. For example, for a 10× dilution, 5 μL of study sample is added to 45 μl of blank matrix. Protein was precipitated from study samples and standards with the addition of 150 μl of acetonitrile. After a clean plate map was placed firmly over the top of the 96-well plate, a bench top shaker was used for 1 min to ensure complete precipitation of protein. The precipitated protein was pelleted by centrifuging for 3,000 rpm for 10 min at 20° C. and then the clear supernatant was transferred to a clean 96-well plate and spun again under the same conditions in order to pellet any solid material that may have been transferred.
(§4) Analysis of Study Samples and Standards with LCMS with MRM Detection
(§5) An Agilent 1200 HPLC with binary pump and a Leap CTC with fast wash autosampler were used to introduce samples to the mass spectrometer.
(§6) The column used was a Phenomenex Luna C8 30×2 mm 5 μm with a security guard. Mass detection was performed by an Applied Biosystems 4000 Qtrap in MRM mode and ionization was achieved by positive electrospray with a source temperature of 500° C. The ion transitions, […] potential and collision energies were dependent on the specific analyte.
(§7) Prepared samples were usually analyzed in reverse chronological order with bracketing standard curves. Typically at least 6 standards were used for quantification with a percent accuracy of +/−15% for all standards except at the LLOQ where a percent accuracy of +/−20% was allowed. The concentration time profile was fit using a one compartment model for the applicable mode of dosing using Phoenix WinNonLin 6.4.

The target in series [2] is T1, CXCR3 (Homo sapiens, UniProt P49682).
T1 construct: host or cells: CHO-K1 (cAMP Hunter CHOK1 CXCR3 Gi cell line)
T1 sequence (P49682 1-368): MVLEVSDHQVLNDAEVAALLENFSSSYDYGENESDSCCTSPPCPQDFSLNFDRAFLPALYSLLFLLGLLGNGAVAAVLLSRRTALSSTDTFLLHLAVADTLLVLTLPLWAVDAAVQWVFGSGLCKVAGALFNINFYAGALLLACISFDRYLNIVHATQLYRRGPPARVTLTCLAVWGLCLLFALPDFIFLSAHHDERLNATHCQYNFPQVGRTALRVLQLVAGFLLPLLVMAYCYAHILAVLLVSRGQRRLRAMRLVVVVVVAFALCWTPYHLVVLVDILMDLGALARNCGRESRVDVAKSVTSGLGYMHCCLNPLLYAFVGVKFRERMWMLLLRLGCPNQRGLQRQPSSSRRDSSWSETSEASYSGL
In words: CXCR3 cAMP agonist assay (cAMP Hunter CHOK1 CXCR3 Gi cell line, forskolin-stimulated, HitHunter cAMP detection). The settings on record: cAMP Hunter CHOK1 CXCR3 Gi cells, 20 μM forskolin, 30 minutes; read-out: Activity (CXCR3 cAMP agonist assay compound EC50). The series is classed as cell-based. The procedure, abridged:
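CHOK1 cells expressing human CXCR3 with Gi coupling, 50,000/well in suspension in HBSS/10 mM HEPES/0.1% BSA pH 7.4, were co-treated with 20 μM forskolin and compound (12-point, 0-10 μM, 1% DMSO) for 30 min. cAMP was read by enzyme-complementation luminescence; CXCL11 dose response set maximum efficacy.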

Series [3] in a line: Mouse pharmacokinetics after oral gavage, plasma drug concentration by LC-MS/MS (C57BL/6). It is filed as in vivo, C57bl/6 mice. The settings on record: for Cmax / AUC(0-t): mouse, plasma; for AUC(0-t): read-out: AUC0-24. Here is the method: as §1, §2, §3, §4, §5, §6, §7

pEC50: −log10 of the molar value.

As a reminder, the Cmax is the peak of the concentration-time curve. Broadly, the pEC50 is the negative decadic logarithm of the EC50, by convention in mol/L. In the case of `Cc1c(Cl)ccc(NC(=O)[C@H](CCN)NC(=O)[C@@H]2Cc3ccccc3CN2C(=O)CCC(=O)c2ccccc2)c1C` [Compound 2-26], in series [1], the “apparent oral clearance (CL/F)” value was 76 mL/min/kg, the concentration peaked (Cmax) at 0.9 µM and the AUC(0-t) came to 3.8 µM·h. In series [2], the negative logarithm of the EC50 (pEC50) was over 7.30.
Consider `Cc1ccc(NC(=O)[C@H](CCN)NC(=O)[C@@H]2Cc3ccccc3CN2C(=O)CCC(=O)c2ccccc2)cc1C` [Compound 2-3], for which, in series [1], the “apparent oral clearance (CL/F)” value is given as 403 mL/min/kg, the highest concentration (Cmax) was found to be 0.4 µM and the AUC(0-t) amounted to 0.8 µM·h. In addition, in series [2], the pEC50 was over 7.30.
Regarding `Cc1cc(NC(=O)[C@H](CCCCN)NC(=O)[C@@H]2Cc3ccccc3CN2C(=O)CCC(=O)c2ccccc2)ccc1Cl` [Compound 1-14], in series [3] (C57BL/6, 10 mg/kg, male mice), the peak concentration (Cmax) was 0.006 µM and the AUC(0-t) worked out at 0.011 µM·h. The negative-log EC50 (pEC50) in series [2] was over 7.30.
On to `Cc1cc(NC(=O)C2(NC(=O)[C@@H]3Cc4ccccc4CN3C(=O)CCC(=O)c3ccccc3)CCNCC2)ccc1Cl` [Compound 4-12], for which, in series [3] (C57BL/6, 10 mg/kg, male mice), the “apparent oral clearance (CL/F)” value is on record as 32 mL/min/kg, the highest level (Cmax) was 3.3 µM and the AUC(0-t) worked out at 9 µM·h. Moreover, the negative-log EC50 (pEC50) in series [2] is 6.60 to 7.30.
Consider `Cc1cc(NC(=O)[C@H](CC23CC(N)(C2)C3)NC(=O)[C@@H]2Cc3ccccc3CN2C(=O)CCC(=O)c2ccccc2)ccc1Cl` [Compound 22-1, (S)—N—((S)-3-(3-aminobicyclo[1.1.1]pentan-1-yl)-1-((4-chloro-3-methylphenyl)amino)-1-oxopropan-2-yl)-2-(4-oxo-4-phenylbutanoyl)-1,2,3,4-tetrahydroisoquinoline-3-carboxamide], for which, in series [3] (C57BL/6, 60 mg/kg, female mice), the “apparent oral clearance (CL/F)” value worked out at 34 mL/min/kg, the Cmax came to 7.3 µM and the AUC(0-t) was found to be 48 µM·h. The pEC50 in series [2] was over 7.30.
The corresponding values for `NCC[C@H](NC(=O)[C@@H]1Cc2ccccc2CN1C(=O)CCC(=O)N1CCCC12CCC2)C(=O)Nc1ccc(Cl)c(Cl)c1F` [Compound 12-152] are 190 mL/min/kg, 2.8 µM, 8.3 µM·h and over 7.30.
The corresponding values for `Cc1cc(NC(=O)[C@H](CCN)NC(=O)[C@@H]2Cc3ccccc3CN2C(=O)CCC(=O)N2CCCC(C)(C)C2)cc(C)c1Cl` [Compound 10-9] are 132 mL/min/kg, 4.3 µM, 12.4 µM·h and over 7.30.
The corresponding values for `O=C(CCC(=O)N1Cc2ccccc2C[C@H]1C(=O)NC1(C(=O)Nc2ccc(Cl)c(Cl)c2F)CCNCC1)c1ccccc1` [Compound 4-14] are 16 mL/min/kg, 5.2 µM, 99 µM·h and over 7.30.
Turning to `Cc1cc(NC(=O)[C@H](CCN)NC(=O)[C@@H]2Cc3ccccc3CN2C(=O)CCC(=O)N2CCN(C)C[C@H]2C)ccc1Cl` [Compound 12-100], in series [3] (C57BL/6, 60 mg/kg, female mice), the AUC0-24 entry is on record as “BQL” and the concentration peaked (Cmax) at 0.37 µM. Also, the negative logarithm of the EC50 (pEC50) in series [2] was over 7.30.
In the case of `Cc1cc(NC(=O)[C@H](CCN)NC(=O)[C@@H]2Cc3ccccc3CN2C(=O)CCC(=O)c2ccccc2)c(OC(F)(F)F)cc1C` [Compound 14-28], in series [3] (C57BL/6, 60 mg/kg, female mice), the “apparent oral clearance (CL/F)” value is reported as 47 mL/min/kg, the highest level (Cmax) was 5.2 µM and the AUC(0-t) amounted to 33.8 µM·h. Further, the negative-log EC50 (pEC50) in series [2] was over 7.30.
Consider `Cc1cc(NC(=O)[C@H](CCN)NC(=O)[C@@H]2Cc3ccccc3CN2C(=O)CCC(=O)c2ccccc2)c(C#N)cc1Cl` [Compound 14-18], for which, in series [3] (C57BL/6, 60 mg/kg, female mice), the “apparent oral clearance (CL/F)” value came to 222 mL/min/kg, the Cmax came to 3.2 µM and the AUC(0-t) was determined as 7.7 µM·h. Moreover, the negative logarithm of the EC50 (pEC50) in series [2] was over 7.30.

For the origin of these results see patent US11040954B1, “CXCR3 receptor agonists” (RECEPTOS LLC, priority 2016, dated 2021).
